From patent US6565883B2, “Controlled release oral compositions comprising rivastigmine” (priority 1998, dated 2003) come the findings set out here.

This series is described as follows: Rivastigmine's biopharmaceutical properties in humans. Type of series: in vivo. An excerpt:
Little has been published in detail on Rivastigmine's biopharmaceutical properties in humans. […] It is subject to pre-systemic and systemic metabolism. […] Suitable test may be effected in fasted beagle dogs.

One may read the half-life as the time in which the quantity being followed falls by half. Consider `CCN(C)C(=O)Oc1cccc([C@H](C)N(C)C)c1` [Rivastigmine], for which the absorption result is “rapidly and completely absorbed”. Further, the metabolism entry (esterases, e.g., acetyl and butyryl cholinesterase) was “metabolised mainly through hydrolysis by esterases”. The half-life (human, plasma) was 1 h.
